Read-outs that look alike come from different tables or passages of the source.
Tests used:
Experiment in all cases: HotSpot kinase profiling
Format in all cases: biochemical
FES/FPS = biological target: T1, FES/FPS (Homo sapiens, UniProt P07332)
T1 construct: purchased Reaction Biology Corp
In short: (§1)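 P81 filtration radiometric readout; 2 h incubation at room temperature; 0.1% phosphoric acid wash; DMSO negative control; % inhibition, mean of replicate runs.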

TEC = biological target: T2, TEC (Homo sapiens, UniProt P42680)
T2 construct: purchased Reaction Biology Corp
T2 sequence (P42680 1-631): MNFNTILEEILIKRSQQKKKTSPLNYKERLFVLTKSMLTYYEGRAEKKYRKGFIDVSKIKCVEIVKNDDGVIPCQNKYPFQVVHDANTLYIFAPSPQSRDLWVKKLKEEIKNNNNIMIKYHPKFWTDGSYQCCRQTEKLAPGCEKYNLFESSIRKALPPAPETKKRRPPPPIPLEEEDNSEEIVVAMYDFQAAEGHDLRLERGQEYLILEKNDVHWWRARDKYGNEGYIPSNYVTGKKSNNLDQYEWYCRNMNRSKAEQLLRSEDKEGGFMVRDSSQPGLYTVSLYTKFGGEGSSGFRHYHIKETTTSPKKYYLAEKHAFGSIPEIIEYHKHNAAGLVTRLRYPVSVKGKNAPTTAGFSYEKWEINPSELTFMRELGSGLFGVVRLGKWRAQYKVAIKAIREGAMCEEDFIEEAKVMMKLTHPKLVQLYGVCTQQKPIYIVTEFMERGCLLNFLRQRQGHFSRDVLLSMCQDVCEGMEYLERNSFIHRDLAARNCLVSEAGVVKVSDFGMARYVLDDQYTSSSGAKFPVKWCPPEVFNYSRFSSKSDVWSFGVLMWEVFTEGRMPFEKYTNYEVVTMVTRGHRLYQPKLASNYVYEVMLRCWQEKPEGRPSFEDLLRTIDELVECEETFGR
In short: as §1

EPHA2 = biological target: T3, EPHA2 (Homo sapiens, UniProt P29317)
T3 construct: purchased Reaction Biology Corp
In short: as §1

P38g = biological target: T4, P38g (Homo sapiens, UniProt P53778)
T4 construct: purchased Reaction Biology Corp
T4 sequence (P53778 1-367): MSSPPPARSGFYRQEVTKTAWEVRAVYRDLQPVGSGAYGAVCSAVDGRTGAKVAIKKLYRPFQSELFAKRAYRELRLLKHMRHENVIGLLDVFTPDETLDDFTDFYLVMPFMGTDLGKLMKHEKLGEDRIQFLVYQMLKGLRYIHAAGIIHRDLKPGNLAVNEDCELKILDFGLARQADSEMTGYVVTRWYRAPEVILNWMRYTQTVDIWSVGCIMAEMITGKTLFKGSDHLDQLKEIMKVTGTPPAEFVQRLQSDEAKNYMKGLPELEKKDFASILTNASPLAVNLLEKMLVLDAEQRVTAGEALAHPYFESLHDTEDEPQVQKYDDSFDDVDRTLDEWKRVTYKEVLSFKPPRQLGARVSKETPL
In short: as §1

PDGFRb = biological target: T5, PDGFRb (Homo sapiens, UniProt P09619)
T5 construct: purchased Reaction Biology Corp
T5 sequence (P09619 33-1106): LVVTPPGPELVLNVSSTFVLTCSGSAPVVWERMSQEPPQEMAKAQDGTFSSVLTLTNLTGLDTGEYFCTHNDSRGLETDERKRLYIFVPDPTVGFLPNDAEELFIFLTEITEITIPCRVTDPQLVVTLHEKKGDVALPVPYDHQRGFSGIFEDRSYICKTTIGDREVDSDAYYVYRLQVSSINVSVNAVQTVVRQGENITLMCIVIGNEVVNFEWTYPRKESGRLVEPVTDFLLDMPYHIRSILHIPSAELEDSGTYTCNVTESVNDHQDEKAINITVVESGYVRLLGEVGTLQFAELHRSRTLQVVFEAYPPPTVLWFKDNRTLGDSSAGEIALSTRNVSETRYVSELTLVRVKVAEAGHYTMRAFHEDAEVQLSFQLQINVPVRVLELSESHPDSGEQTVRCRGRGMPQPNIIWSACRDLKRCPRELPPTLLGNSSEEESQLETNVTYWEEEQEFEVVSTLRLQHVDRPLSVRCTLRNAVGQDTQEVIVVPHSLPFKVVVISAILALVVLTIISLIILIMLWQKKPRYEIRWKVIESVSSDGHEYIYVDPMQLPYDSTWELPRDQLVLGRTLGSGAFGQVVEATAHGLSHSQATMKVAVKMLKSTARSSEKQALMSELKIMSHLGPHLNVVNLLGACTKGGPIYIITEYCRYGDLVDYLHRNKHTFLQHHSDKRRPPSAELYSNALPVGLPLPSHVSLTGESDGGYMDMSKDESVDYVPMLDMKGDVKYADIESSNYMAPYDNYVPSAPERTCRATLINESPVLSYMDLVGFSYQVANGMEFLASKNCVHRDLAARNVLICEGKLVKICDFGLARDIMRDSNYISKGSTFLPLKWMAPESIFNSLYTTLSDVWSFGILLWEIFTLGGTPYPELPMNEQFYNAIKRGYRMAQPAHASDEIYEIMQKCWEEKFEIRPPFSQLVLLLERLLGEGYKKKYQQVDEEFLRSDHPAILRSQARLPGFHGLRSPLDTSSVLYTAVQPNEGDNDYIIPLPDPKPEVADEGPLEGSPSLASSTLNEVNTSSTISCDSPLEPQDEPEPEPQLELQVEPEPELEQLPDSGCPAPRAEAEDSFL
In short: as §1

FLT4/VEGFR3 = biological target: T6, FLT4/VEGFR3 (Homo sapiens, UniProt P35916)
T6 construct: purchased Reaction Biology Corp
T6 sequence (P35916 25-1363): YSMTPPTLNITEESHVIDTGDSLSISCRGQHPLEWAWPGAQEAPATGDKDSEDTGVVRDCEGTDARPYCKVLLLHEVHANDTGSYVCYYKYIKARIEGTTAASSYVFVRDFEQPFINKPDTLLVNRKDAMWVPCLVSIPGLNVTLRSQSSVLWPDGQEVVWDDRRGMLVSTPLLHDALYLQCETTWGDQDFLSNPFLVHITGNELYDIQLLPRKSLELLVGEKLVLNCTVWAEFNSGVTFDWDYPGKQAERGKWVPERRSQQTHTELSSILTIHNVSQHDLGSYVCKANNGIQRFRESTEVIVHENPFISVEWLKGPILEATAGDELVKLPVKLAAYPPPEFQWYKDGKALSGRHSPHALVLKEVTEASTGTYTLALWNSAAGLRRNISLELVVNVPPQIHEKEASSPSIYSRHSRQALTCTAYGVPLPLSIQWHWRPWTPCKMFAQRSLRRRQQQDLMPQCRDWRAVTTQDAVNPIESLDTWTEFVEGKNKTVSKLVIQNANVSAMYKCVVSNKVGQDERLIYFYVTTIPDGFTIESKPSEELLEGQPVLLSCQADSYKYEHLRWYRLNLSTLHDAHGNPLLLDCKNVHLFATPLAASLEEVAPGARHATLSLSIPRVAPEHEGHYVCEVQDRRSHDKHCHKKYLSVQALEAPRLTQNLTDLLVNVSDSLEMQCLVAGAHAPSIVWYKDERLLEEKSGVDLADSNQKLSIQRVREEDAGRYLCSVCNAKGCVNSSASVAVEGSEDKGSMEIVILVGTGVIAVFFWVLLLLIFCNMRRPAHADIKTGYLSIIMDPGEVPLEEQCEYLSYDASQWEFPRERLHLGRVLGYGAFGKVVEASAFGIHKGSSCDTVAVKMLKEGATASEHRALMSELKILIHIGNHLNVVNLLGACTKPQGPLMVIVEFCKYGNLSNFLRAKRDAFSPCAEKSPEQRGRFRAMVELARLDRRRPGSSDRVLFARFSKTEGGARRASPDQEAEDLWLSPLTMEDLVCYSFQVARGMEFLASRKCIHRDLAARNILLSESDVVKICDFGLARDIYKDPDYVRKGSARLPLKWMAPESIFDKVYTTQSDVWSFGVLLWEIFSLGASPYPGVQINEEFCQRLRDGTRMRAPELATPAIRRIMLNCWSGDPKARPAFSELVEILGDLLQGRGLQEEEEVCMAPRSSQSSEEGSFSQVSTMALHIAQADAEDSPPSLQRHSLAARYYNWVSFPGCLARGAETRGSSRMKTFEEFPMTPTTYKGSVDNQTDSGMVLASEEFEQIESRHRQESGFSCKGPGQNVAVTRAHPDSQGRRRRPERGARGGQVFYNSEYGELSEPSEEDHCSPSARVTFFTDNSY
In short: as §1

MSK2/RPS6KA4 = biological target: T7, MSK2/RPS6KA4 (Homo sapiens, UniProt O75676)
T7 construct: purchased Reaction Biology Corp
T7 sequence (O75676 whole entry): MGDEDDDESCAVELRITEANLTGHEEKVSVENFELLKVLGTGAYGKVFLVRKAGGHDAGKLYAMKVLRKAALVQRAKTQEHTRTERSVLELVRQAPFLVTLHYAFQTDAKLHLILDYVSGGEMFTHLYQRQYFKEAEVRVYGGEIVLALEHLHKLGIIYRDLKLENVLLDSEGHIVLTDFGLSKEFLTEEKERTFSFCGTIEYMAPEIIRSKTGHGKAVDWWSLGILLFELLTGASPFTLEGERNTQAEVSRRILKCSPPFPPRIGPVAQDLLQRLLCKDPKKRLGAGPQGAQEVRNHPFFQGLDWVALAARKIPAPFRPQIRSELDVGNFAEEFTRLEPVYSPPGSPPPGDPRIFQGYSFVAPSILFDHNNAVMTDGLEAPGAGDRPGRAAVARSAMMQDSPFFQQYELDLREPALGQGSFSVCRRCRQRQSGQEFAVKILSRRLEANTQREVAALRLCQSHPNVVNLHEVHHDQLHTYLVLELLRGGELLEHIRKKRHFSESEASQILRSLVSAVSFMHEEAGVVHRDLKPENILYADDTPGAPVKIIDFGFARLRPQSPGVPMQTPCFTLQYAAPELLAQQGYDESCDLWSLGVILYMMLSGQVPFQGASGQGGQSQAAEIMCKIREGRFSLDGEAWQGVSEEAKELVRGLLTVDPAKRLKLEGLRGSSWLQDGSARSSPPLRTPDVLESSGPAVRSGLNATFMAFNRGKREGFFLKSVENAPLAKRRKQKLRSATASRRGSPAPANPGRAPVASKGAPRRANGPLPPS
In short: as §1

JAK1 = biological target: T8, JAK1 (Homo sapiens, UniProt P23458)
T8 construct: purchased Reaction Biology Corp
In short: as §1

RSK1 = biological target: T9, RSK1 (Homo sapiens, UniProt Q15418)
T9 construct: purchased Reaction Biology Corp
In short: as §1

ABL2/ARG = biological target: T10, ABL2/ARG (Homo sapiens, UniProt P42684)
T10 construct: purchased Reaction Biology Corp
In short: as §1

HIPK2 = biological target: T11, HIPK2 (Homo sapiens, UniProt Q9H2X6)
T11 construct: purchased Reaction Biology Corp
T11 sequence (Q9H2X6 whole entry): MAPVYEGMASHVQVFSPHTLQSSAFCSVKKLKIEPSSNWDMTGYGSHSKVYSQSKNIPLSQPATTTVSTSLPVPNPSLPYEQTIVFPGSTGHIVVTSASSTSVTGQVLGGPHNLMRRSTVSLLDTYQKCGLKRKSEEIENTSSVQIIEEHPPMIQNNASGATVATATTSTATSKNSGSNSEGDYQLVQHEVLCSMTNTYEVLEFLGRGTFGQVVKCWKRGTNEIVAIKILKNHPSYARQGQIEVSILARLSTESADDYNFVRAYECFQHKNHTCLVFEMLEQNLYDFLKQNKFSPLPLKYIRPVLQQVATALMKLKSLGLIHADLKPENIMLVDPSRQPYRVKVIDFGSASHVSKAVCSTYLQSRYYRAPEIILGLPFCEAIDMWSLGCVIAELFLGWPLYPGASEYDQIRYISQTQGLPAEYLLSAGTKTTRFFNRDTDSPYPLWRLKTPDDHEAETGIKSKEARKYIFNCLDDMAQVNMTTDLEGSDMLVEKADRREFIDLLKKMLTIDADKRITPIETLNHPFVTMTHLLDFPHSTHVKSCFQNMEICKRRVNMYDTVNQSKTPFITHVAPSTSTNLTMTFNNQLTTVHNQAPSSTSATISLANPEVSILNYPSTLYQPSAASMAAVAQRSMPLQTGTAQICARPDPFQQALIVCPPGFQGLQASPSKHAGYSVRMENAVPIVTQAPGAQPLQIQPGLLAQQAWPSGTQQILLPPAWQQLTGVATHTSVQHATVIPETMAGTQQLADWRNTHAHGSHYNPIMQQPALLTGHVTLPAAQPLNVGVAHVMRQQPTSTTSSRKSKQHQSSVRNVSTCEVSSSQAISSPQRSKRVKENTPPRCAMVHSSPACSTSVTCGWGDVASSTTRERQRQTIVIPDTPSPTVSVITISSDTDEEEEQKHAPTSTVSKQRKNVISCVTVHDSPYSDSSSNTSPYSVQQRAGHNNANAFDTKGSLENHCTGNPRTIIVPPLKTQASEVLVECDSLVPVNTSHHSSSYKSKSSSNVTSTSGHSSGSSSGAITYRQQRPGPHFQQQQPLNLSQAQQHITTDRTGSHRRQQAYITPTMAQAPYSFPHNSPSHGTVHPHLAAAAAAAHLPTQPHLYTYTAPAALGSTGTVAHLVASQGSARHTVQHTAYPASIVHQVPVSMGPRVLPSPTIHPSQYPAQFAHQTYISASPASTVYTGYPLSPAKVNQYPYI
In short: as §1

RIPK2 = biological target: T12, RIPK2 (Homo sapiens, UniProt O43353)
T12 construct: purchased Reaction Biology Corp
T12 sequence (O43353 whole entry): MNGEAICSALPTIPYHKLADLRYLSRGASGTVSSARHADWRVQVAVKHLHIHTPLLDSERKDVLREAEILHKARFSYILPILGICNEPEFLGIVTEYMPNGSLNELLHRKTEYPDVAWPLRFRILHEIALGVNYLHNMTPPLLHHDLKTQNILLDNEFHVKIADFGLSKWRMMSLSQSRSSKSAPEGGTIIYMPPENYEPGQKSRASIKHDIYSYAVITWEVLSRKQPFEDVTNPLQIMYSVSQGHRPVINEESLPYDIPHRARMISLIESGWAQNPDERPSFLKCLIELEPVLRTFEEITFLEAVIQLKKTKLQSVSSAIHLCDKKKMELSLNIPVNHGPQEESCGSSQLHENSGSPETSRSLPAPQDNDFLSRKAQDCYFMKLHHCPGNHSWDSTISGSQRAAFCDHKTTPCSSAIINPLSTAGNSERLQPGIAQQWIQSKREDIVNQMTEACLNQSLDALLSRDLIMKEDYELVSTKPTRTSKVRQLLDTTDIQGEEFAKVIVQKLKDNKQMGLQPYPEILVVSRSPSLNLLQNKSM
In short: as §1

[1] = read-out: % Enzyme Activity (relative to DMSO controls) Run 1
[2] = read-out: % Enzyme Activity (relative to DMSO controls) Run 2

C=CC(=O)Nc1cccc(Nc2nc(Nc3ccc(OCCOC)c(F)c3)ncc2F)c1 [Compound 2]
inhibition at 3 µM (FES/FPS): 35% | remaining activity at 3 µM (FES/FPS; [1]): 64% | remaining activity at 3 µM (FES/FPS; [2]): 66% | inhibition at 3 µM (TEC): 89.1% | remaining activity at 3 µM (TEC; [1]): 10.4% | remaining activity at 3 µM (TEC; [2]): 11.5% | inhibition at 3 µM (EPHA2): 15.8% | remaining activity at 3 µM (EPHA2; [1]): 84.2% | remaining activity at 3 µM (EPHA2; [2]): 84.1% | inhibition at 3 µM (P38g): -5.53% | remaining activity at 3 µM (P38g; [1]): 105% | remaining activity at 3 µM (P38g; [2]): 106% | inhibition at 3 µM (PDGFRb): 52.4% | remaining activity at 3 µM (PDGFRb; [1]): 47.7% | remaining activity at 3 µM (PDGFRb; [2]): 47.4% | inhibition at 3 µM (FLT4/VEGFR3): 56% | remaining activity at 3 µM (FLT4/VEGFR3; [1]): 43.8% | remaining activity at 3 µM (FLT4/VEGFR3; [2]): 44.2% | inhibition at 3 µM (MSK2/RPS6KA4): -0.36% | remaining activity at 3 µM (MSK2/RPS6KA4; [1]): 103% | remaining activity at 3 µM (MSK2/RPS6KA4; [2]): 97.4% | inhibition at 3 µM (JAK1): 40.6% | remaining activity at 3 µM (JAK1; [1]): 59.7% | remaining activity at 3 µM (JAK1; [2]): 59% | inhibition at 3 µM (RSK1): 27.1% | remaining activity at 3 µM (RSK1; [1]): 73.3% | remaining activity at 3 µM (RSK1; [2]): 72.5% | inhibition at 3 µM (ABL2/ARG): 62.8% | remaining activity at 3 µM (ABL2/ARG; [1]): 37.3% | remaining activity at 3 µM (ABL2/ARG; [2]): 37.1% | inhibition at 3 µM (HIPK2): 2.82% | remaining activity at 3 µM (HIPK2; [1]): 95.8% | remaining activity at 3 µM (HIPK2; [2]): 98.6% | inhibition at 3 µM (RIPK2): 23.7% | remaining activity at 3 µM (RIPK2; [1]): 77.6% | remaining activity at 3 µM (RIPK2; [2]): 75%

— US9492471B2, “Methods of treating a disease or disorder associated with Bruton'S Tyrosine Kinase” (Celgene Avilomics Research, Inc., priority 2013, dated 2016)
